Laboratory results from US9956240B2, “Therapeutic monosaccharide-based inhibitors of hexokinase and glucokinase for parasitic diseases, along with methods of their formation and use” (University of South Carolina, priority 2014, dated 2018).
Where two headings read alike, the source gives them in different places.

Experiments:
[1] = molecular target: T1, T. cruzi glucokinase (TcGlcK) (Trypanosoma cruzi, UniProt Q4E4E1); assay: Two-enzyme coupled colorimetric glucokinase activity assay (G6PDH/NADPH), TcGlcK; assay type: biochemical; settings: for Glucokinase selectivity ratio = Ki (HsGlcK)/Ki (TcGlcK): higher values indicate better selectivity toward TcGlcK
T1 construct: precedes the start methionine and the 9-residue segment VGKKQKAQL at the C-terminal region was not included; made in house; host or cells: E. coli BL21(DE3)
T1 sequence (Q4E4E1 entry or part of it): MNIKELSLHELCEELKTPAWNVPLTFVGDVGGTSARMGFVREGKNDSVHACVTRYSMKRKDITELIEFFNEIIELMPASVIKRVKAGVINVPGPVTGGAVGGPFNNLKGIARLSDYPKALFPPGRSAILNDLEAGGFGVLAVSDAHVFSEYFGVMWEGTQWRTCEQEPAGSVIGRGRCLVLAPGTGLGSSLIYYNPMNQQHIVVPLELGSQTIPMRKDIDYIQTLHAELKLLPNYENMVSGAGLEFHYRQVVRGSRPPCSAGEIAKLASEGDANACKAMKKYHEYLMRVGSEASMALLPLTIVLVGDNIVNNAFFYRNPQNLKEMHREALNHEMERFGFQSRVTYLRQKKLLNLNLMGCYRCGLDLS
Description: (§1) Enzymatic activity of glucokinase from T. cruzi and H. sapiens were both performed using a similar protocol but had minor modifications. In general, a two-enzyme coupled colorimetric assay was performed, as previously described (4). The assay is based on the formation of NADPH (λmax≈340 nm; ϵ340=6,220 M^−1 cm^−1) (5). In the 1st step of the assay, glucokinase/hexokinase in the presence of Mg^2+, ATP, and D-glucose react to form glucose-6-phosphate (G-6-P) and ADP. In the 2nd step, glucose-6-phosphate dehydrogenase (G6PDH) in the presence of the formed G-6-P and NADP^+ react to form 6-phosphogluconolactone and NADPH. All measurements were performed in triplicate at 22° C.
TcGlcK assays used purified enzyme (0.12 μM for the monomer (0.0051 mg/mL)) that was used in the reaction mixtures, which were carried out with S. cerevisiae G6PDH (0.0064 mg/mL) in an assay buffer [50 mM triethanolamine (pH 7.6), 7.95 mM MgCl2, 0.55 mM ATP, 0.55 mM NADP^+] contained substrate ([D-glucose] ranged from 0.2-15.0 mM) and inhibitor ([BENZ-GlcN] ranged from 0-20 μM; [CBZ-GlcN] ranged from 0-10 μM; [HPOP-GlcN] ranged from 0-10 μM; and [DBT-GlcN] ranged from 0-20 μM). Reactions were performed at room temperature (22° C.) and were terminated after 120 sec (optimal time) using 90 μL of 1.5 M EDTA (pH 8.0). The EDTA solution was prepared from the tetrasodium salt. For quantification of NADPH, UV-visible spectrophotometric absorbance readings were recorded at 338 nm (λ) with an Agilent 8453 UV-visible spectrophotometer exactly 1 min after solutions were treated with the EDTA solution. Concentration of NADPH was determined through Beer's Law using the molar absorptivity of 6,220 M^−1 cm^−1.

[2] = molecular target: T2, Homo sapiens glucokinase (hexokinase IV) (HsGlcK) (Homo sapiens, UniProt P35557); assay: Two-enzyme coupled colorimetric glucokinase activity assay (G6PDH/NADPH), HsGlcK; assay type: biochemical; settings: measurements in triplicate, 22° C., substrate D-glucose, compounds tested as racemic mixtures (n ≥ 2), read-out: Ki versus substrate, HsGlcK
T2 construct: precedes residue K12 (N-terminal segment M1-A11 of HsGlcK was not included); made in house; host or cells: E. coli BL21(DE3)
T2 sequence (P35557 12-457 limits assumed): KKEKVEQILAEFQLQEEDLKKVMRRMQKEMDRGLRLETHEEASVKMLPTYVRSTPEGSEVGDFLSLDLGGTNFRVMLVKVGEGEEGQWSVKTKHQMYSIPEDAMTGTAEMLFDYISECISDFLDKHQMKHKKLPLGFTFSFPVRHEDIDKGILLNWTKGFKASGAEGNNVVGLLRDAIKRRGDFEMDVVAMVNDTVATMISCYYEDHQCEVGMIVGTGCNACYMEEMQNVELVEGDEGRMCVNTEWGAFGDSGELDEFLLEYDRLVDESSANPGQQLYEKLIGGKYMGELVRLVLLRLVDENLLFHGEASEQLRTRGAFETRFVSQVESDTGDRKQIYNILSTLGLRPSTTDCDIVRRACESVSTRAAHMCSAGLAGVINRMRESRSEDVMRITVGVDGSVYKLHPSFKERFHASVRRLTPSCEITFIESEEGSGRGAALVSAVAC
Description: as §1
HsGlcK assays were performed at room temperature and used the same protocol implemented for TcGlcK (see above) except that the reactions were terminated after 600 sec (optimum time) with 90 μL of 1.5 M EDTA (pH 8.0) and the reaction mixtures had slight modification. Briefly, DTT, which reduces disulfide bonds was added to the stock solution aliquot of HsGlcK on the day of the experiment (e.g. 1.0 μL of 20 mM DTT was mixed with 99.0 μL of 1.0 mg/mL HsGlcK) and was allowed to pre-equilibrate at 4° C. for 30 min prior to running assay reactions. Purified HsGlcK (0.15 μM for the monomer or 0.0077 mg/mL) and S. cerevisiae G6PDH (0.0064 mg/mL) in an assay buffer [50 mM triethanolamine (pH 7.6), 7.95 mM MgCl2, 5.0 mM ATP, 0.55 mM […], 1.0% (v/v) DMSO, 1.0 mM DTT, 5.0 mM KCl] contained substrate ([D-glucose] ranged from 5.0-50.0 mM) and inhibitor ([BENZ-GlcN] ranged from 0-500 μM; [CBZ-GlcN] ranged from 0-500 μM; and [HPOP-GlcN] ranged from 0-500 μM). DBT-GlcN was not used in the inhibition enzymatic assays because this compound absorbs light at the wavelength of NADPH (338 nm) at the concentrations needed for any reasonable inhibition of HsGlcK.

[3] = tested on: T. cruzi (Tulahuen strain) intracellular amastigote parasite cells; assay: T. cruzi in-vitro growth inhibition assay, amastigotes co-cultured in NIH/3T3 fibroblasts; assay type: cell-based; settings: Trypanosoma cruzi, NIH3T3, co-cultured within NIH/3T3 fibroblast cells, triplicate
Description: T. cruzi (Tulahuen strain) intracellular amastigote parasite cells co-cultured within NIH/3T3 mammalian fibroblast cells were tested for in-vitro growth inhibition from each of Samples 1-4. […] Samples 1, 3, and 4 had IC50 values>40 μM. The methods used for producing cultures of T. cruzi cells and mammalian cells in addition to the methods of performing T. cruzi in-vitro inhibition assays were previously described by Andriani and colleagues (20). All biological experimentation was carried out at the Anti-Infectives Screening Core Service Center at New York University School of Medicine, Department of Microbiology.

[4] = colorimetric assay, measurements in triplicate, 22° C., substrate D-glucose, compounds tested as racemic mixtures (n ≥ 2), read-out: Ki versus substrate, TcGlcK

Row | Structure (SMILES) | Ki [1] [µM] | Glucokinase selectivity ratio = Ki (HsGlcK)/Ki (TcGlcK) [1] | Ki [2] [µM] | IC50 [3] [µM] | Ki [1, 4] [µM]
1 | O=C(N[C@H]1C(O)O[C@H](CO)[C@@H](O)[C@@H]1O)OCc1ccccc1 (mixture of isomers) [CBZ-GlcN, 2-N-carboxybenzyl-2-deoxy-D-glucosamine] | 0.71 ± 0.05 | 245 | 174 ± 50 | > 40 | 
2 | O=C(N[C@H]1C(O)O[C@H](CO)[C@@H](O)[C@@H]1O)OCC1=Cc2ccccc2S1(=O)=O (mixture of isomers) [DBT-GlcN, 2-[[1,1-dioxobenzo[b]thiophen-2-yl]methyloxocarbonylamino]-2-deoxy-D-glucosamine] |  |  |  | > 40 | 4.1 ± 0.3
3 | O=C(CCc1ccc(O)cc1)N[C@H]1C(O)O[C@H](CO)[C@@H](O)[C@@H]1O (mixture of isomers) [HPOP-GlcN, 2-[[3-(4-hydroxyphenyl)-1-oxopropyl]amino]-2-deoxy-D-glucosamine] | 1.3 ± 0.6 | 186 | 242 ± 97 | > 40 | 
4 | O=C(N[C@H]1C(O)O[C@H](CO)[C@@H](O)[C@@H]1O)c1ccccc1 (stereo partly drawn) [BENZ-GlcN, 2-benzamido-2-deoxy-D-glucopyranose] |  | 12 | 376 ± 196 | 16.08 ± 0.16 | 32 ± 26
